Literature values, collected in paper PMC11956011, “An Amazing 30-Year Journey around the DABO Family: A Medicinal Chemistry Lesson on a Versatile Class of Non-nucleoside HIV-1 Reverse Transcriptase Inhibitors” (Journal of Medicinal Chemistry, 2025).
Read-outs that look alike come from different tables or passages of the source.

Legend:
[1] = test system: HIV-1 RT (WT, recombinant); conditions: read-out: IC50 (HIV-1 RT)
HIV-1 = conditions: for IC50: read-out: IC50 (HIV-1 cytopathic effect in cells)

For “2-(cyclopentylthio)-6-[(1R)-1-(2,6-difluorophenyl)ethyl]-5-methyl-4(3H)-pyrimidinone [[+]-38]”, the IC50 ([1]; Fig 5, printed without unit) is listed as 0.008 µM, the EC50 (HIV-1) is listed as 0.002 µM and the SI (HIV-1) is listed as greater than 100000. The CC50 (mock-infected cells; Fig 5) was greater than 200 µM.

In the case of `CCOCn1c(Cc2ccccc2)c(C(C)C)c(=O)[nH]c1=O` [Emivirine, reference compound], the EC50 (HIV-1; Fig 4) is listed as 0.0042 µM, the SI (HIV-1; Fig 4) is listed as 44000 and the CC50 (mock-infected cells) is listed as 186 µM.

In the case of `Cc1cccc(Cc2cc(=O)[nH]c(OC3CCCCC3)n2)c1` [compound 6], the SI (HIV-1; CC50/EC50, Fig 3) is listed as greater than 400.

For `CCC(C)Oc1nc(Cc2cc(C)cc(C)c2)c(C)c(=O)[nH]1` (stereo not shown) [compound 7], the SI (HIV-1; CC50/EC50, Fig 3) is given as greater than 400.

For `Nc1cc(Cl)nc(Sc2ccccc2)n1` [compound 20], the EC50 (HIV-1; Fig 4) is given as 90 µM and the SI (HIV-1; Fig 4) is given as 2.3.

For `CCC(C)Oc1nc(N)cc(S(=O)(=O)c2cccc(C)c2)n1` (stereo not shown) [compound 22], the SI (HIV-1; Fig 4) is given as greater than 43 and the CC50 (mock-infected cells; Fig 4) is given as greater than 200 µM.

For `CCOC1CSc2nc(=O)c(CC)c(Cc3cc(C)cc(C)c3)n21` (stereo not shown) [compound 24], the SI (HIV-1; CD50/ED50, Fig 4) is given as greater than 140, the ED50 (HIV-1; Fig 4) is given as 0.7 µM and the CD50 (mock-infected cells; Fig 4) is given as greater than 100 µM.

In the case of `Nc1nc2c(c(=O)[nH]1)CCC2c1ccccc1` (stereo not shown) [compound 27, 2-amino-7-phenyl-6,7-dihydro-5H-cyclopenta[d]-4(3H)-pyrimidinone], the “anti-HIV-1 activity (in words)” value (HIV-1) is given as “lacked anti-HIV-1 activity”.

In the case of `CCC(C)Sc1nc(O)cc(Cc2c(Cl)cccc2Cl)n1` (stereo not shown) [compound 28], the IC50 ([1]; Fig 5) is listed as 0.1 µM, the SI (HIV-1; Fig 5) is listed as greater than 1428 and the CC50 (mock-infected cells; Fig 5) is listed as greater than 200 µM.

In the case of `CCC(C)Sc1nc(O)c(C)c(Cc2c(Cl)cccc2Cl)n1` (stereo not shown) [compound 29], the IC50 ([1]; Fig 5) is given as 0.06 µM, the SI (HIV-1; Fig 5) is given as greater than 4000 and the CC50 (mock-infected cells; Fig 5) is given as greater than 200 µM.

For `CCC(C)Sc1nc(O)cc(C(C)c2c(F)cccc2F)n1` (stereo not shown) [compound 34], the SI (HIV-1; Fig 5) is listed as greater than 6666, the EC50 (HIV-1; Fig 5, MT-4 cells) is listed as 0.03 µM and the CC50 (mock-infected cells; Fig 5) is listed as greater than 200 µM.

In the case of `CCCCSc1nc(O)c(C)c(C(C)c2c(F)cccc2F)n1` (stereo not shown) [compound 37], the EC50 (HIV-1; Fig 5, MT-4 cells) is given as 0.008 µM.

In the case of `Cc1cc(=O)[nH]c(SCCN2C(=O)c3ccccc3C2=O)n1` [compound 74], the SI (HIV-1; Fig 9) is listed as 61.6.

In the case of `O=C1c2ccccc2C(=O)N1CCSc1nc(Cc2c(F)cccc2F)cc(=O)[nH]1` [compound 75], the EC50 (HIV-1; Fig 9) is listed as 17 µM, the SI (HIV-1; Fig 9) is listed as greater than 5.9 and the CC50 (mock-infected cells; Fig 9) is listed as greater than 100 µM.

For `CCc1c(Cc2ccccc2Br)nc(SCc2ccc(OC)cc2)[nH]c1=O` [compound 87], the SI (HIV-1; Fig 9) is given as 717, the IC50 (HIV-1; Fig 9) is given as 0.23 µM and the CC50 (mock-infected cells; Fig 9) is given as 165 µM.

For `CCc1c(Cc2ccccc2Br)nc(SCc2ccc([N+](=O)[O-])cc2)[nH]c1=O` [compound 88], the SI (HIV-1; Fig 9) is listed as greater than 368, the IC50 (HIV-1; Fig 9) is listed as 0.74 µM and the CC50 (mock-infected cells; Fig 9) is listed as greater than 272 µM.

For `CCc1c(Cc2cccc(Br)c2)nc(SCc2ccc(OC)cc2)[nH]c1=O` [compound 89], the SI (HIV-1; Fig 9) is listed as 718, the IC50 (HIV-1; Fig 9) is listed as 0.28 µM and the CC50 (mock-infected cells; Fig 9) is listed as 201 µM.

For `CCc1c(Cc2cc(C)cc(C)c2)nc(SCc2ccc(OC)cc2)[nH]c1=O` [compound 90], the SI (HIV-1; Fig 9) is listed as greater than 2642, the IC50 (HIV-1; Fig 9) is listed as 0.12 µM and the CC50 (mock-infected cells; Fig 9) is listed as greater than 317 µM.

For `CCc1c(Cc2cc(C)cc(C)c2)nc(SCc2ccc([N+](=O)[O-])cc2)[nH]c1=O` [compound 91], the SI (HIV-1; Fig 9) is listed as greater than 1906, the IC50 (HIV-1; Fig 9) is listed as 0.16 µM and the CC50 (mock-infected cells; Fig 9) is listed as greater than 305 µM.

In the case of `CC(=O)c1ccc(Cn2cc(CSc3nc(Cc4c(Cl)cccc4Cl)c(C)c(=O)[nH]3)nn2)cc1` [compound 92], the EC50 (HIV-1; Fig 9) is listed as 3.86 µM and the SI (HIV-1; Fig 9) is listed as 8.

In the case of `Cc1c(Cc2c(Cl)cccc2Cl)nc(SCc2cn(Cc3ccc(S(N)(=O)=O)cc3)nn2)[nH]c1=O` [compound 93], the EC50 (HIV-1; Fig 9) is given as 3.22 µM and the SI (HIV-1; Fig 9) is given as 30.

In the case of `COc1ccc(Cn2cc(CSc3nc(Cc4c(Cl)cccc4Cl)c(C)c(=O)[nH]3)nn2)cc1` [compound 94], the SI (HIV-1; Fig 9) is given as 6.

For `Cc1c(Cc2c(Cl)cccc2Cl)nc(SCC(=O)Nc2ccc(Cl)cc2)[nH]c1=O` [compound 105], the SI (HIV-1; Fig 10) is given as greater than 836 and the CC50 (mock-infected cells; Fig 10) is given as greater than 267 µM.

For `Cc1c(Cc2c(Cl)cccc2Cl)nc(SCC(=O)Nc2ccc(Br)cc2)[nH]c1=O` [compound 106], the SI (HIV-1; Fig 10) is given as greater than 1326 and the CC50 (mock-infected cells; Fig 10) is given as greater than 244 µM.

In the case of `Cc1c(Cc2c(Cl)cccc2Cl)nc(SCC(=O)Nc2ccc(F)c(F)c2)[nH]c1=O` [compound 108], the SI (HIV-1; Fig 10) is given as greater than 387 and the CC50 (mock-infected cells; Fig 10) is given as greater than 266 µM.

In the case of `CCN(CC)CCc1cc(=O)[nH]c(SC)n1` [compound 184], the CC50 (mock-infected cells) is listed as 250 µg/mL.
